Measurements taken from the PolyMetriX glass transition set.
Structures can show the parent of a compound that is named as a salt. ± gives the standard deviation of the reports.

With `*CC(*)C(=O)OCC(CC)CCCC` (repeat unit) [Poly(2-ethylhexyl acrylate)] the glass transition temperature was -57.08 ± 7 °C. `*CC(*)c1ccc(OCCOCCOC(C)=O)cc1` (repeat unit) gave a glass transition temperature of -3.00 °C. In the case of `*CC(*)(C)C(=O)OCC(F)(F)F` (repeat unit) [Poly(2,2,2-trifluoroethyl methacrylate)], the glass transition temperature is reported as 74.42 ± 0.8 °C. Molecule `*Oc1ccc(CC(NC(=O)CCc2ccc(OC(=O)COCCOCC(*)=O)cc2)C(=O)OCCOCCOCC)cc1` (repeat unit) has a glass transition temperature of 18.00 °C. For `*CC(O)COc1ccc(C(C)(C)c2ccc(O*)c(Cl)c2)cc1Cl` (repeat unit), the glass transition temperature was 85.00 °C. Work on `*CC(*)(C)C(=O)Oc1c(OC)cc(/C=C/c2ccccc2)cc1OC` (repeat unit) yielded a glass transition temperature of 140.00 °C. Molecule `*OC(=O)OCCCCCCCCOC(=O)OC1COC2C(*)COC12` (repeat unit) has a glass transition temperature of 19.50 °C. Molecule `*OC(F)(C(=O)[N]([Li])S(=O)(=O)C(F)(F)C(*)(F)F)C(F)(F)F` (repeat unit) has a glass transition temperature of 67.00 °C. Molecule `*CC(*)(CC(=O)OCCc1ccccc1)C(=O)OCCc1ccccc1` (repeat unit) has a glass transition temperature of 45.00 °C. Work on `*Oc1ccc(CC(NC(=O)Cc2ccc(OC(=O)COCC(*)=O)cc2)C(=O)OCCCCCC)cc1` (repeat unit) yielded a glass transition temperature of 46.00 °C. `*CCCCC(=O)Oc1ccc(OC(=O)c2ccc3c(c2)C(=O)N(*)C3=O)cc1` (repeat unit) gave a glass transition temperature of 89.31 °C. In the case of `*Oc1ccc(Oc2ccc(C(=O)c3ccc(NC(=O)CCCCCCCCC(=O)Nc4ccc(C(=O)c5ccc(*)cc5)cc4)cc3)cc2)cc1` (repeat unit), the glass transition temperature is reported as 130.00 °C. `*Oc1ccc(C(C)(C)c2ccc(OC(*)=O)c(CC)c2)cc1CC` (repeat unit) gave a glass transition temperature of 65.00 °C. For `*CCCCCCN1C(=O)c2ccc(C(=O)Nc3ccc(S(=O)(=O)c4ccc(NC(=O)c5ccc6c(c5)C(=O)N(*)C6=O)cc4)cc3)cc2C1=O` (repeat unit), the glass transition temperature was 198.00 °C. `*CCCCCCC(=O)NCc1ccc(CNC(=O)CCCCCCS*)cc1` (repeat unit) showed a glass transition temperature of 65.00 °C. With `*CNC(=O)OCC(OC(=O)NCc1ccc(C(CCC)c2ccc(*)o2)o1)c1ccco1` (repeat unit) the glass transition temperature was 43.00 °C. Work on `*CCC[Si](*)(C)c1ccccc1` (repeat unit) yielded a glass transition temperature of -1.50 °C. In the case of `*CC(C)(C)COC(=O)NC(=O)c1ccc(C(=O)NC(=O)O*)cc1` (repeat unit), the glass transition temperature is reported as 102.00 °C. Work on `*=NP(=NP(=NC(=*)Oc1ccc(C(F)(F)F)cc1)(Oc1ccc(C(F)(F)F)cc1)Oc1ccc(C(F)(F)F)cc1)(Oc1ccc(C(F)(F)F)cc1)Oc1ccc(C(F)(F)F)cc1` (repeat unit) yielded a glass transition temperature of 31.00 °C. For `*c1ccc(Sc2ccc(Sc3ccc(Sc4ccc(Sc5ccc(N6C(=O)c7ccc(Sc8ccc(Sc9ccc(Sc%10ccc%11c(c%10)C(=O)N(*)C%11=O)cc9)cc8)cc7C6=O)cc5)s4)s3)s2)cc1` (repeat unit), the glass transition temperature was 177.00 °C. With `*c1cccc(OP(=O)(Oc2cccc(-n3c(=O)c4cc5c(=O)n(*)c(=O)c5cc4c3=O)c2)c2ccccc2)c1` (repeat unit) the glass transition temperature was 191.00 °C. Work on `*OC(=O)CCCCCCCCC(*)=O` (repeat unit) yielded a glass transition temperature of 60.00 °C. With `*CCCCOc1ccc(C(=O)Nc2cccc(P(=O)(c3ccccc3)c3cccc(NC(=O)c4ccc(O*)cc4)c3)c2)cc1` (repeat unit) the glass transition temperature was 191.00 °C. Work on `*c1cccc(Oc2cccc(Oc3cccc(N4C(=O)c5ccc(Oc6ccc7c(c6)C(=O)N(*)C7=O)cc5C4=O)c3)c2C#N)c1` (repeat unit) yielded a glass transition temperature of 219.00 °C. In the case of `*CC(*)c1ccc(B(Oc2ccc(Cl)c3cccnc23)c2ccc(C(C)(C)C)cc2)cc1` (repeat unit), the glass transition temperature is reported as 238.00 °C. `*CCCCCCCCCCCCCCCCCCCCC(*)COCCOCCOCCOCCOCc1ccc2ccc3cccc4ccc1c2c34` (repeat unit) gave a glass transition temperature of -21.00 °C. Molecule `*OCCOC(=O)CCCC(=O)OCCOc1nc(-c2ccc(OCCCC)cc2)nc(*)c1-c1ccc(OCCCC)cc1` (repeat unit) has a glass transition temperature of 37.00 °C. `*c1ccc(-c2ccc(-c3cnc4cc(-c5ccc6nc(*)cnc6c5)ccc4n3)cc2)cc1` (repeat unit) gave a glass transition temperature of 345.50 °C. `*c1ccc(Oc2ccc(-c3cnc4cc(Oc5ccc6nc(*)cnc6c5)ccc4n3)cc2)cc1` (repeat unit) gave a glass transition temperature of 382.00 °C. `*C(=O)c1ccc2c(c1)C(=O)N(c1ccc(C(C)(C)c3ccc(C(C)(C)c4ccc(N5C(=O)c6ccc(*)cc6C5=O)cc4)cc3)cc1)C2=O` (repeat unit) gave a glass transition temperature of 322.00 °C. With `*/C=C/[Si](*)(c1ccccc1)c1ccccc1` (repeat unit) the glass transition temperature was -9.00 °C. `*C(=O)Nc1ccc(Oc2ccc(S(=O)(=O)c3ccc(Oc4ccc(NC(=O)c5ccc6c(c5)C(=O)N(c5ccc(Oc7ccc8ccc(Oc9ccc(N%10C(=O)c%11ccc(*)cc%11C%10=O)cc9)cc8c7)cc5)C6=O)cc4)cc3)cc2)cc1` (repeat unit) showed a glass transition temperature of 274.00 °C. Molecule `*c1ccc2c(c1)C(=O)N(c1ccc(Oc3ccc(C(=O)c4cccc(N5C(=O)c6ccc(C(*)(C(F)(F)F)C(F)(F)F)cc6C5=O)c4)cc3)cc1)C2=O` (repeat unit) has a glass transition temperature of 242.00 °C. For `*Oc1ccc(C(C)(C)c2ccc(OC(*)=O)c(C(C)C)c2)cc1C(C)C` (repeat unit), the glass transition temperature was 80.00 °C. `*C(=O)c1ccc2c(c1)C(=O)N(c1cccc(OCCOCCOc3cccc(N4C(=O)c5ccc(*)cc5C4=O)c3)c1)C2=O` (repeat unit) showed a glass transition temperature of 155.00 °C. Molecule `*c1ccc(Oc2ccc(S(=O)(=O)c3ccc(Oc4ccc(N5C(=O)c6ccc(Oc7cccc8c(Oc9ccc%10c(c9)C(=O)N(*)C%10=O)cccc78)cc6C5=O)cc4)cc3)cc2)cc1` (repeat unit) has a glass transition temperature of 201.00 °C. `*Oc1ccc(S(=O)(=O)c2ccc(OC(=O)c3ccc([Si](c4ccccc4)(c4ccccc4)c4ccc(C(*)=O)cc4)cc3)cc2)cc1` (repeat unit) gave a glass transition temperature of 250.00 °C. `*C(F)(F)C1(F)C(F)(F)C(*)(F)C(F)(F)C(F)(F)C1(F)F` (repeat unit) gave a glass transition temperature of 101.00 °C. For `*CC(*)OC=O` (repeat unit) [Poly(vinyl formate)], the glass transition temperature was 32.4 ± 3.6 °C. With `*CC(*)C(=O)OCCCSC` (repeat unit) the glass transition temperature was -65.00 °C. `*CC(*)OC(=O)c1ccccc1Cl` (repeat unit) showed a glass transition temperature of 55.8 °C. With `*CCCCCCCC(=O)OCCOC(=O)CCCCCCCC1OCC2(COC(*)OC2)CO1` (repeat unit) the glass transition temperature was 0.00 °C. `*Oc1ccc(CC(NC(=O)CCc2ccc(OC(=O)CCCCC(*)=O)cc2)C(=O)OCCCC)cc1` (repeat unit) showed a glass transition temperature of 46.00 °C. In the case of `*C(=O)Nc1cccc(S(=O)(=O)c2cccc(NC(=O)c3ccc4c(c3)C(=O)N(c3cc(-c5nnc(-c6ccccn6)o5)cc(N5C(=O)c6ccc(*)cc6C5=O)c3)C4=O)c2)c1` (repeat unit), the glass transition temperature is reported as 173.00 °C. Work on `*OC1C(C)(C)C(OC(*)=O)C1(C)C` (repeat unit) yielded a glass transition temperature of 160.00 °C. In the case of `*C(=O)c1ccc2c(c1)C(=O)N(c1ccc(-c3c(-c4ccc(-c5ccccc5)cc4)cc(-c4ccc(OCCCCCCCCCCOc5ccc(-c6cc(-c7ccc(-c8ccccc8)cc7)c(-c7ccc(N8C(=O)c9ccc(*)cc9C8=O)cc7)c(-c7ccc(-c8ccccc8)cc7)c6)cc5)cc4)cc3-c3ccc(-c4ccccc4)cc3)cc1)C2=O` (repeat unit), the glass transition temperature is reported as 103.50 °C. For `*c1ccc2c(c1)C(=O)N(c1ccc(Oc3c(C)cc(C(c4cc(C)c(Oc5ccc(N6C(=O)c7ccc(C(*)(C(F)(F)F)C(F)(F)F)cc7C6=O)cc5)c(C)c4)c4cccc5ccccc45)cc3C)cc1)C2=O` (repeat unit), the glass transition temperature was 308.00 °C. With `*CC(C)(C)C1C(=O)N(c2ccccc2)C(=O)C1*` (repeat unit) the glass transition temperature was 188.00 °C. Work on `*CC(*)(CC(=O)OCCCCCCC)C(=O)OCCCCCCC` (repeat unit) yielded a glass transition temperature of -23.00 °C. Work on `*CCCCCCCCCCCOc1ccc(CCc2ccc(O*)cc2C)cc1` (repeat unit) yielded a glass transition temperature of 3.90 °C. `*CCCCCCN(C)c1ccc(C(=O)c2ccc(N(*)C)cc2)cc1` (repeat unit) showed a glass transition temperature of 75.50 °C. `*CC(C)(CC)C(=O)O*` (repeat unit) gave a glass transition temperature of -9.00 °C. Molecule `*OC(=O)OCCOCCOC(=O)OC1COC2C(*)COC12` (repeat unit) has a glass transition temperature of 46.50 °C. `*CC1CCCC(CN2C(=O)c3ccc(C(=O)c4ccc5c(c4)C(=O)N(*)C5=O)cc3C2=O)C1` (repeat unit) gave a glass transition temperature of 213.00 °C. Work on `*c1ccc2c(c1)C(=O)N(c1c(C)cc(-c3cc(C)c(-c4cc(C)c(N5C(=O)c6ccc(C(*)(C(F)(F)F)C(F)(F)F)cc6C5=O)c(C)c4)cc3C)cc1C)C2=O` (repeat unit) yielded a glass transition temperature of 361.00 °C. In the case of `*CCN(CCCCCOc1ccc(/N=N/c2ccccc2)cc1)CCOC(=O)Nc1ccc(Cc2ccc(NC(=O)O*)cc2)cc1` (repeat unit), the glass transition temperature is reported as 59.60 °C. `*CCC(=O)Nc1ccc(NC(=O)CCN2C(=O)c3ccc(C(=O)c4ccc5c(c4)C(=O)N(*)C5=O)cc3C2=O)cc1` (repeat unit) gave a glass transition temperature of 237.00 °C. `*Nc1ccc(NC(=O)c2ccc(NC(=O)CCCCCCCCC(=O)Nc3ccc(C(*)=O)cc3)cc2)cc1C(=O)OCCCCCCCCCCCCCCCC` (repeat unit) showed a glass transition temperature of 220.00 °C. Work on `*/C=C/C(C)C(*)C(=O)OCCN(C)c1ccc(N(C)C)cc1` (repeat unit) yielded a glass transition temperature of 20.50 °C. Molecule `*CCCCCCCC(=O)OCCCCC1COC(*)O1` (repeat unit) has a glass transition temperature of -44.00 °C. Molecule `*CC(OCC(C)C)C1C(=O)OC(=O)C1*` (repeat unit) has a glass transition temperature of 145.00 °C. For `*CCCCCCCCCN1C(=O)c2ccc(-c3ccc(-c4ccc5c(c4)C(=O)N(*)C5=O)cc3)cc2C1=O` (repeat unit), the glass transition temperature was 104.00 °C. Work on `*C1C(=O)N(C(C)(C)C)C(=O)C1*` (repeat unit) yielded a glass transition temperature of 195.00 °C. With `*C(=O)c1cc2c(cc1Cl)C(=O)N(c1cc(C(=O)O)cc(N3C(=O)c4cc(*)c(Cl)cc4C3=O)c1)C2=O` (repeat unit) the glass transition temperature was 368.00 °C. For `*c1ccc(Oc2ccc(-c3nc(-c4cccc(-c5nnc(-c6ccccc6)c(*)n5)n4)nnc3-c3ccccc3)cc2)cc1` (repeat unit), the glass transition temperature was 219.00 °C.
